Assay results: patent publication US20090149429A1, “ANTIVIRAL COMPOUNDS” (Myriad Genetics, Incorporated, priority 2005, published 2009)

Test system: mock-infected MT-4 cells
Experiment: Compound toxicity in mock-infected MT-4 cells (WST-1 assay)
Type: cell-based
Settings: four days incubation, read-out: TC50 (concentration of compound that results in death of 50% of the host cells)
Method: The HTLV-1 transformed T cell line, MT-4, is highly susceptible to HIV-1 infection. Anti-HIV-1 agents were evaluated in this target cell line by protection from the HIV-induced cytopathic effect. In this assay, viability of both HIV-1 and mock-infected cells was assessed in a […] assay that monitors the ability of metabolically-active cells to reduce the tetrazolium salt WST-1. Cytoprotection by antiviral compounds is indicated by the positive readout of increased WST-1 cleavage.
Briefly, exponentially growing MT-4 cells were mock-infected or batch-infected with the HIV-1 laboratory strain, NL4-3, at a multiplicity of infection of 0.0005. Following a two hour infection, the cells were washed to remove unbound virus and plated in the presence of increasing concentrations of compound. After four days incubation, cytoprotection in the infected cells and compound toxicity in mock-infected cells were analyzed using the WST-1 assay.

Row | Compound | CC50
1 | C=C(C)[C@@H]1CC[C@]2(C(=O)NCc3ccc(C(=O)O)cc3)CC[C@]3(C)[C@H](CC[C@@H]4[C@@]5(C)CC[C@H](OC(=O)CC(C)(C)C(=O)O)C(C)(C)[C@@H]5CC[C@]43C)[C@@H]12 [Compound 37] | ~7.7 µM
2 | C=C(C)[C@@H]1CC[C@]2(C(=O)NCc3ccccc3C(=O)O)CC[C@]3(C)[C@H](CC[C@@H]4[C@@]5(C)CC[C@H](OC(=O)CC(C)(C)C(=O)O)C(C)(C)[C@@H]5CC[C@]43C)[C@@H]12 [Compound 39] | ~6.3 µM
